From patent publication US20040224914A1, “Method for treatment of angiogenic disorders” (The University of British Columbia, priority 2003, published 2004)

Key:
HUVECS [1] = experiment: HUVECS cell viability (mts) after antisense with or without drug; type: cell-based, human
Procedure: HUVECS were grown for 2 days in wells after seeding at 1200 per well. Antisense oligonucleotide of Seq. ID No. 5 (4 μg/ml with LIPOFECTIN™) was added in serum free medium and incubated with the cells for 4 hours. Then 100 μl of serum was added and incubation was continued overnight. The next day, 150 μl of drug solution in serum medium was added. After two days, 20 μl of mts solution was added and left for approximately 3 hours. Cell viability was determined as the difference between absorption at 490 and 595 nm.

HUVECS [2] = details: by the induction of apoptosis; cited from earlier work
[3] = Table 2 series, Drug alone (100 nM camptothecin)
[4] = Table 3 series, Drug alone (200 nM doxorubicin)
[5] = Table 1 series, Drug alone (100 nM paclitaxel)
[6] = Table 1 series, AS 50 nM, no drug
[7] = Table 1 series, AS 100 nM, no drug
[8] = Table 1 series, AS 200 nM, no drug
[9] = Table 1 series, Drug (100 nM paclitaxel) + AS 50 nM
[10] = Table 1 series, Drug (100 nM paclitaxel) + AS 100 nM
[11] = Table 1 series, Drug (100 nM paclitaxel) + AS 200 nM
[12] = Table 2 series, AS 50 nM, no drug
[13] = Table 2 series, AS 100 nM, no drug
[14] = Table 2 series, AS 200 nM, no drug
[15] = Table 2 series, Drug (100 nM camptothecin) + AS 50 nM
[16] = Table 2 series, Drug (100 nM camptothecin) + AS 100 nM
[17] = Table 2 series, Drug (100 nM camptothecin) + AS 200 nM
[18] = Table 3 series, AS 50 nM, no drug
[19] = Table 3 series, AS 100 nM, no drug
[20] = Table 3 series, AS 200 nM, no drug
[21] = Table 3 series, Drug (200 nM doxorubicin) + AS 50 nM
[22] = Table 3 series, Drug (200 nM doxorubicin) + AS 100 nM
[23] = Table 3 series, Drug (200 nM doxorubicin) + AS 200 nM

For `CC[C@@]1(O)C(=O)OCc2c1cc1n(c2=O)Cc2cc3ccccc3nc2-1` [camptothecin, reference compound], the “absorbance at 490 nm (mts, cell viability)” value (“absorbance at 490 nm” below) (HUVECS [1]; [3]) is listed as 0.55, the “absorbance at 595 nm (mts, cell viability)” value (from here on “absorbance at 595 nm”) (HUVECS [1]; [3]) is listed as 0.07 and the “concentration range that inhibits Huvecs” value (HUVECS [2]) is listed as “low nanomolar range”.

For `COc1cccc2c1C(=O)c1c(O)c3c(c(O)c1C2=O)C[C@@](O)(C(=O)CO)C[C@@H]3O[C@H]1C[C@H](N)[C@H](O)[C@H](C)O1` [doxorubicin, reference compound], the “absorbance at 490 nm” value (HUVECS [1]; [4]) is listed as 0.74, the “absorbance at 595 nm” value (HUVECS [1]; [4]) is listed as 0.08 and the “concentration range that inhibits Huvecs” value (HUVECS [2]) is listed as “low nanomolar range”.

For `CC(=O)O[C@H]1C(=O)[C@@]2(C)[C@H]([C@H](OC(=O)c3ccccc3)[C@]3(O)C[C@H](OC(=O)[C@H](O)[C@@H](NC(=O)c4ccccc4)c4ccccc4)C(C)=C1C3(C)C)[C@]1(OC(C)=O)CO[C@@H]1C[C@@H]2O` [paclitaxel, reference compound], the “absorbance at 490 nm” value (HUVECS [1]; [5]) is listed as 0.53, the “absorbance at 595 nm” value (HUVECS [1]; [5]) is listed as 0.12 and the “concentration range that inhibits Huvecs” value (HUVECS [2]) is listed as “low nanomolar range”.

With “AS: Antisense oligonucleotide of Seq. ID No. 5, which reduces the effective amount of clusterin (antisense CAGCAGCAGAGTCTTCATCAT; listed as DNA, chemistry not given here)” the “cell viability response to antisense concentration” value (HUVECS [1]; FIG. 1, paclitaxel series) was “dose dependent response”, the “cell viability response to antisense in the presence of drug versus absence” value (shortened to “cell viability response … of drug versus absence”) (HUVECS [1]; FIG. 1, in the presence of 100 nM paclitaxel) was “the response is greater” and the “cell viability response to antisense concentration” value (HUVECS [1]; FIG. 2, camptothecin series) was “dose dependent response”. The “cell viability response … of drug versus absence” value (HUVECS [1]; FIG. 2, in the presence of 100 nM camptothecin) was “the response is greater”, the “cell viability response to antisense concentration” value (HUVECS [1]; FIG. 3, doxorubicin series) was “dose dependent response” and the “cell viability response … of drug versus absence” value (HUVECS [1]; FIG. 3, in the presence of 200 nM doxorubicin) was “the response is greater”. For the same molecule, the “absorbance at 490 nm” value (HUVECS [1]; [6]) was 0.66, the “absorbance at 595 nm” value (HUVECS [1]; [6]) was 0.04 and the “absorbance at 490 nm” value (HUVECS [1]; [7]) was 0.40. The “absorbance at 595 nm” value (HUVECS [1]; [7]) was 0.09, the “absorbance at 490 nm” value (HUVECS [1]; [8]) was 0.28 and the “absorbance at 595 nm” value (HUVECS [1]; [8]) was 0.07. For the same molecule, the “absorbance at 490 nm” value (HUVECS [1]; [9]) was 0.50, the “absorbance at 595 nm” value (HUVECS [1]; [9]) was 0.09 and the “absorbance at 490 nm” value (HUVECS [1]; [10]) was 0.24. For the same molecule, the “absorbance at 595 nm” value (HUVECS [1]; [10]) was 0.04, the “absorbance at 490 nm” value (HUVECS [1]; [11]) was 0.17 and the “absorbance at 595 nm” value (HUVECS [1]; [11]) was 0.05. For the same molecule, the “absorbance at 490 nm” value (HUVECS [1]; [12]) was 0.66, the “absorbance at 595 nm” value (HUVECS [1]; [12]) was 0.10 and the “absorbance at 490 nm” value (HUVECS [1]; [13]) was 0.39. The “absorbance at 595 nm” value (HUVECS [1]; [13]) was 0.06, the “absorbance at 490 nm” value (HUVECS [1]; [14]) was 0.21 and the “absorbance at 595 nm” value (HUVECS [1]; [14]) was 0.04. For the same molecule, the “absorbance at 490 nm” value (HUVECS [1]; [15]) was 0.53, the “absorbance at 595 nm” value (HUVECS [1]; [15]) was 0.07 and the “absorbance at 490 nm” value (HUVECS [1]; [16]) was 0.31. The “absorbance at 595 nm” value (HUVECS [1]; [16]) was 0.08, the “absorbance at 490 nm” value (HUVECS [1]; [17]) was 0.15 and the “absorbance at 595 nm” value (HUVECS [1]; [17]) was 0.05. The “absorbance at 490 nm” value (HUVECS [1]; [18]) was 0.66, the “absorbance at 595 nm” value (HUVECS [1]; [18]) was 0.07 and the “absorbance at 490 nm” value (HUVECS [1]; [19]) was 0.35. The “absorbance at 595 nm” value (HUVECS [1]; [19]) was 0.05, the “absorbance at 490 nm” value (HUVECS [1]; [20]) was 0.22 and the “absorbance at 595 nm” value (HUVECS [1]; [20]) was 0.04. For the same molecule, the “absorbance at 490 nm” value (HUVECS [1]; [21]) was 0.66, the “absorbance at 595 nm” value (HUVECS [1]; [21]) was 0.06 and the “absorbance at 490 nm” value (HUVECS [1]; [22]) was 0.32. The “absorbance at 595 nm” value (HUVECS [1]; [22]) was 0.04, the “absorbance at 490 nm” value (HUVECS [1]; [23]) was 0.18 and the “absorbance at 595 nm” value (HUVECS [1]; [23]) was 0.02. For the same molecule, the “effect of antisense on inhibition of cell proliferation induced by antiproliferative drugs” value (HUVECS [1]; paclitaxel, camptothecin, doxorubicin, downregulation of clusterin) was “enhanced”.
